The experiment deals with P388 leukemia ip, CD2F1 mice, survival T/C. Kind of experiment: NCI In Vivo Anticancer Drug Screen. Data for tumor model P388 Leukemia (intraperitoneal) in CD2F1 (CDF1) mice. Particulars: endpoint: median survival time, higher = longer survival. A digest of the protocol:
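Mice carrying the transplanted tumor received test compound or vehicle. Survival was recorded in each group, and the value is the treated-group measurement divided by that of the vehicle-treated control group.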

The mark [1] stands for this setting: dose: 25.0 mg/kg/injection, schedule: Q04DX003 (ip), vehicle: saline.
The mark [2] stands for this setting: dose: 50.0 mg/kg/injection, schedule: Q04DX003 (ip), vehicle: saline.
Where [3] appears, read: dose: 100.0 mg/kg/injection, schedule: Q01DX001 (ip), vehicle: saline.
Setting [4] is: dose: 200.0 mg/kg/injection, schedule: Q01DX001 (ip), vehicle: saline.
Where [5] appears, read: dose: 400.0 mg/kg/injection, schedule: Q01DX001 (ip), vehicle: saline.
The mark [6] stands for this setting: dose: 50.0 mg/kg/injection, schedule: Q01DX009 (ip), vehicle: saline with Tween-80.
The mark [7] stands for this setting: dose: 100.0 mg/kg/injection, schedule: Q01DX009 (ip), vehicle: saline with Tween-80.
The mark [8] stands for this setting: dose: 200.0 mg/kg/injection, schedule: Q01DX009 (ip), vehicle: saline with Tween-80.
Setting [9] is: dose: 50.0 mg/kg/injection, schedule: Q01DX005 (ip), vehicle: saline with Tween-80.
Setting [10] is: dose: 100.0 mg/kg/injection, schedule: Q01DX005 (ip), vehicle: saline with Tween-80.
[11] abbreviates: dose: 200.0 mg/kg/injection, schedule: Q01DX005 (ip), vehicle: saline with Tween-80.
Setting [12] is: dose: 60.0 mg/kg/injection, schedule: Q01DX005 (ip), vehicle: Klucel (hydroxypropylcellulose) (HPC).
Where [13] appears, read: dose: 120.0 mg/kg/injection, schedule: Q01DX005 (ip), vehicle: Klucel (hydroxypropylcellulose) (HPC).
The mark [14] stands for this setting: dose: 240.0 mg/kg/injection, schedule: Q01DX005 (ip), vehicle: Klucel (hydroxypropylcellulose) (HPC).
Setting [15] is: dose: 100.0 mg/kg/injection, schedule: Q04DX003 (ip), vehicle: saline with Tween-80.

Molecules are shown by their SMILES. Several values for one entry are separate records, joined by “and”; a condition that tells them apart may be missing. Equal entries are not always repeated. Toxic doses and inconclusive results are not listed.

Regarding `COc1cccc2c1C(=O)c1c(O)c3c(c(O)c1C2=O)C[C@@](O)(C(C)=O)CC3OC1CC(NC(=O)CCN)C(O)C(C)O1` (stereo not given in full), the T/C by setting is: (dose: 6.25 mg/kg/injection, schedule: Q04DX003 (ip), vehicle: saline) 97 % of control; (dose: 12.5 mg/kg/injection, schedule: Q04DX003 (ip), vehicle: saline) 100 % of control; under setting [1], 103 % of control; under setting [2], 97 % of control.

As for `N#CC1C(C#N)C2(c3ccccc3)C(c3ccccc3)=NN(c3ccccc3)CC12` (stereo not given), the T/C runs as follows: (dose: 25.0 mg/kg/injection, schedule: Q01DX001 (ip), vehicle: Klucel (hydroxypropylcellulose) (HPC)) 91 % of control; (dose: 50.0 mg/kg/injection, schedule: Q01DX001 (ip), vehicle: Klucel (hydroxypropylcellulose) (HPC)) 95 % of control; (dose: 100.0 mg/kg/injection, schedule: Q01DX001 (ip), vehicle: Klucel (hydroxypropylcellulose) (HPC)) 87 % of control.

`O=C(O)Cc1nn[nH]n1`: the T/C (dose: 100.0 mg/kg/injection, schedule: Q04DX003 (ip), vehicle: Klucel (hydroxypropylcellulose) (HPC)) was 107 % of control and the T/C (dose: 200.0 mg/kg/injection, schedule: Q04DX003 (ip), vehicle: Klucel (hydroxypropylcellulose) (HPC)) is 108 % of control.

Consider `N#Cc1ccccc1NC(=O)Nc1ccc(Cc2ccc(NC(=O)Nc3ccccc3C#N)cc2)cc1`, for which the T/C reads like this: (dose: 60.0 mg/kg/injection, schedule: Q01DX005 (ip), vehicle: saline with Tween-80) 97 % of control; (dose: 120.0 mg/kg/injection, schedule: Q01DX005 (ip), vehicle: saline with Tween-80) 97 % of control; (dose: 240.0 mg/kg/injection, schedule: Q01DX005 (ip), vehicle: saline with Tween-80) 93 % of control.

Take `CC(C)C(N)C(=O)Nc1nncs1` (stereo not given): the T/C (dose: 100.0 mg/kg/injection, schedule: Q04DX002 (ip), vehicle: saline) was 106 % of control; the T/C (dose: 200.0 mg/kg/injection, schedule: Q04DX002 (ip), vehicle: saline) was 183 % of control; the T/C (dose: 400.0 mg/kg/injection, schedule: Q04DX002 (ip), vehicle: saline) is 157 % of control and 190 % of control; the T/C (dose: 600.0 mg/kg/injection, schedule: Q04DX002 (ip), vehicle: saline) is 171 % of control.

For the molecule `CN=C(N)N`, the T/C is 100 % of control (dose: 50.0 mg/kg/injection, schedule: Q01DX001 (ip), vehicle: saline); 98 % of control under setting [3]; 100 % of control under setting [4]; 101 % of control under setting [5].

Turning to `CC(C)(C)SCC(CSC(C)(C)C)(CSC(C)(C)C)CSC(C)(C)C`, the T/C was 102 % of control (dose: 1.5 mg/kg/injection, schedule: Q01DX001 (ip), vehicle: saline with Tween-80); 98 % of control (dose: 3.0 mg/kg/injection, schedule: Q01DX001 (ip), vehicle: saline with Tween-80); 112 % of control (dose: 6.0 mg/kg/injection, schedule: Q01DX001 (ip), vehicle: saline with Tween-80).

Take `CNC(=O)NC1NC(=O)N(C)C1=O` (stereo not given): the T/C runs as follows: under setting [6], 100 % of control; under setting [7], 99 % of control; under setting [8], 100 % of control.

In the case of `O=C(N/N=C(/C(=N/NC(=O)c1ccccc1)c1ccccc1)c1ccccc1)c1ccccc1`, the T/C reads like this: under setting [7], 100 % of control; under setting [8], 95 % of control; (dose: 400.0 mg/kg/injection, schedule: Q01DX009 (ip), vehicle: saline with Tween-80) 90 % of control.

Take `COc1cc2cc(/C(C)=N/OCC3CO3)c(Cl)nc2cc1OC` (stereo not given): the T/C reads like this: under setting [9], 96 % of control; under setting [10], 93 % of control; under setting [11], 92 % of control.

`CCOC(=O)Cc1csc(=S)n1-c1ccccc1`: the T/C by setting is: under setting [9], 102 % of control; under setting [10], 102 % of control; under setting [11], 90 % of control.

In the case of `CCOC1(C)Oc2cc3c(cc2C(c2cc(OC)c(OC)c(OC)c2)C1C)OCO3` (stereo not given), the T/C reads like this: under setting [12], 96 % of control; under setting [13], 100 % of control; under setting [14], 98 % of control.

In the case of `CC1=C2C(=CC(C)(CO)C2O)C(O)C(C)(O)C12CC2` (stereo not given), the T/C is, setting by setting: (dose: 0.78 mg/kg/injection, schedule: Q01DX009 (ip), vehicle: water) 100 % of control; (dose: 1.56 mg/kg/injection, schedule: Q01DX009 (ip), vehicle: water) 114 % of control; (dose: 3.13 mg/kg/injection, schedule: Q01DX009 (ip), vehicle: water) 105 % of control; (dose: 6.25 mg/kg/injection, schedule: Q01DX009 (ip), vehicle: water) 112 % of control; (dose: 12.5 mg/kg/injection, schedule: Q01DX009 (ip), vehicle: water) 118 % of control.

With `O=C1C2=C(Nc3ccccc3N2)OC1c1ccc(C2OC3=C(Nc4ccccc4N3)C2=O)cc1` (stereo not given), the T/C is, setting by setting: under setting [12], 88 % of control; under setting [13], 88 % of control; under setting [14], 87 % of control.

Regarding `O=[N+]([O-])c1ccc([Se]c2ncccn2)c([N+](=O)[O-])c1`, the T/C reads like this: under setting [1], 104 % of control; under setting [2], 104 % of control; (dose: 100.0 mg/kg/injection, schedule: Q04DX003 (ip), vehicle: saline) 100 % of control and 117 % of control; (dose: 200.0 mg/kg/injection, schedule: Q04DX003 (ip), vehicle: saline) 100 % of control.

`COc1ccccc1N1C(=O)CC(Sc2ccccc2N)C1=O` (stereo not given): the T/C reads like this: under setting [15], 104 % of control; (dose: 200.0 mg/kg/injection, schedule: Q04DX003 (ip), vehicle: saline with Tween-80) 90 % of control; (dose: 400.0 mg/kg/injection, schedule: Q04DX003 (ip), vehicle: saline with Tween-80) 90 % of control.

For `CCCCNC(=O)[C@@H]1C[C@H](OP(c2ccccc2)c2ccccc2)CN1P(c1ccccc1)c1ccccc1`, the T/C is 100 % of control under setting [9], 100 % of control under setting [10] and 99 % of control under setting [11].

Turning to `Nc1ccc2cc3ccccc3cc2c1`, the T/C (dose: 5.0 mg/kg/injection, schedule: Q01DX009 (ip), vehicle: saline with Tween-80) was 95 % of control; the T/C (dose: 5.0 mg/kg/injection, schedule: Q04DX003 (ip), vehicle: saline with Tween-80) was 95 % of control; the T/C (dose: 10.0 mg/kg/injection, schedule: Q01DX009 (ip), vehicle: saline with Tween-80) was 104 % of control; the T/C (dose: 10.0 mg/kg/injection, schedule: Q04DX003 (ip), vehicle: saline with Tween-80) was 91 % of control; the T/C (dose: 12.5 mg/kg/injection, schedule: Q01DX009 (ip), vehicle: saline with Tween-80) is 100 % of control; the T/C (dose: 20.0 mg/kg/injection, schedule: Q01DX009 (ip), vehicle: saline with Tween-80) was 118 % of control. The T/C runs as follows: (dose: 20.0 mg/kg/injection, schedule: Q04DX003 (ip), vehicle: saline with Tween-80) 112 % of control; (dose: 25.0 mg/kg/injection, schedule: Q01DX009 (ip), vehicle: saline with Tween-80) 109 % of control; (dose: 40.0 mg/kg/injection, schedule: Q01DX009 (ip), vehicle: saline with Tween-80) 118 % of control; (dose: 40.0 mg/kg/injection, schedule: Q04DX003 (ip), vehicle: saline with Tween-80) 112 % of control; under setting [6], 109 % of control.

Consider `CC(=O)C1=C(O)C2(O)C(=O)c3c(c(C)c4ccc(C)c(O)c4c3O)CC2C(N)C1=O` (stereo not given), for which the T/C is 103 % of control and 107 % of control and 120 % of control (dose: 7.5 mg/kg/injection, schedule: Q01DX009 (ip), vehicle: saline + alcohol); 103 % of control (dose: 15.0 mg/kg/injection, schedule: Q01DX009 (ip), vehicle: saline + alcohol); 119 % of control (dose: 30.0 mg/kg/injection, schedule: Q01DX009 (ip), vehicle: saline + alcohol); 111 % of control (dose: 50.0 mg/kg/injection, schedule: Q04DX003 (ip), vehicle: saline with Tween-80); 111 % of control under setting [15].

In the case of `CCOC(=O)N1NC(=O)CC1(C)C`, the T/C runs as follows: under setting [3], 95 % of control; under setting [4], 100 % of control; under setting [5], 90 % of control.

(Values after PubChem BioAssay AID330 (DTP/NCI, 2004).)
